Measurements published in patent US11389445B2, “Pentafluorosulfanyl-substituted amide derivatives, preparation methods thereof and medical uses thereof” (Beijing Innocare Pharma Tech Co., Ltd., priority 2018, dated 2022).
pIC50: −log10 of the molar value.

Molecular target: plasma IDO1 (Mus musculus (Mouse), UniProt P28776)
Test: not given
Details: single dose, nude mice; cited from earlier work

Chain of plasma IDO1 (P28776 whole entry): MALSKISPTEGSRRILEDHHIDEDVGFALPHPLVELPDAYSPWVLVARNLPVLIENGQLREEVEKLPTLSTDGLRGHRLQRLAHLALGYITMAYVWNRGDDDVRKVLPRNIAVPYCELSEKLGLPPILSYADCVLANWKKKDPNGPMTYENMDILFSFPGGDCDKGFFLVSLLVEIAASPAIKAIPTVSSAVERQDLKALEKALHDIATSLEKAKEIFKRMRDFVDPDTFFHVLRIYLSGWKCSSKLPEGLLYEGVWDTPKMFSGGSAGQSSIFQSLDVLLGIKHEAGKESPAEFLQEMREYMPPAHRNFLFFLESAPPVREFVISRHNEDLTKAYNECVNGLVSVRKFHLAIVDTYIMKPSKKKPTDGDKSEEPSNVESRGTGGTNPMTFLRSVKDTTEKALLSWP

Row | Structure (SMILES) | inhibition of the activity of plasma IDO1
1 | NS(=O)(=O)NCCNc1nonc1C(=NO)Nc1ccc(F)c(Br)c1 [INCB-024360] | effectively inhibit the activity of plasma IDO1 in nude mice at the same level as that in IDO-deficient mice

Molecular target: indoleamine 2,3-dioxygenase (IDO) in Hela cells induced by IFN-γ (Homo sapiens (Human), UniProt P14902)
Sequence (P14902 whole entry): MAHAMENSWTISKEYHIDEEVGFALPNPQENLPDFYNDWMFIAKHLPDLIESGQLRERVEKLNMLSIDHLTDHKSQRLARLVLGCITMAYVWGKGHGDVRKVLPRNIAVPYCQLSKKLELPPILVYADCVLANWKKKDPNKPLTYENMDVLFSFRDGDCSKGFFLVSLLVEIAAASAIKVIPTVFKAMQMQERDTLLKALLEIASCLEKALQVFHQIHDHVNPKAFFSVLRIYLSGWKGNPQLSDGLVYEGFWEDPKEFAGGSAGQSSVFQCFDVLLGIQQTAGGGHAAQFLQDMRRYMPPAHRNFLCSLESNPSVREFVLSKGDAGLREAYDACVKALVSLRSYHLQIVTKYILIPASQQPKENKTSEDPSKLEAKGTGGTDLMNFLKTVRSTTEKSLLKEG
Test: IDO Cellular Activity Inhibition Assay (Ehrlich method)
Type: cell-based
Details: 24 hours, OD490
Experimental: IDO Cellular Activity Inhibition Assay
The effect of the compounds of the present invention on the activity of indoleamine 2,3-dioxygenase (IDO) in Hela cells induced by IFN-γ was evaluated by the Ehrlich method.
The experimental principle is summarized as follows: IDO expression is low in Hela cells under no induction, but a certain concentration of IFN-γ can induces Hela cells to express IDO which catalyzes the conversion of tryptophan to N-formyl kynurenine, which in turn is hydrolyzed by trichloroacetic acid to give kynurenine. Kynurenine then reacts with the Ehrlich reagent to give a color enabling detection of the IDO activity. The absorbance at 490 nm (OD490) is directly proportional to the IDO activity.
The test compound was dissolved in DMSO (Sigma, Cat. No. D5879) and diluted to 5 mM, then serially diluted 3-fold with DMSO to a minimum concentration of 2.29 μM, and each concentration point was further diluted 50-fold with FBS-free DMEM medium (ThermoFisher, Cat. No. 11995073). If a compound's IC50 value was very low, the initial concentration of the compound was lowered.
Hela cells (ATCC, Cat. No. CCL-2) were cultured in DMEM complete medium containing 10% FBS (GBICO, Cat. No. 10099-141) and 100 U/mL streptomycin mixture (ThermoFisher, Cat. No. 15140122). When covering the culture vessel 80-90%, the cells were digested with 0.25% trypsin (containing EDTA) (ThermoFisher, Cat. No. 25200056) and planted in 96-well plates (Corning, Cat. No. 3599) by 20000 cells per well (80 μL of DMEM medium). The plates were then incubated in a 37° C., 5% CO2 incubator overnight (18-20 hours).
After overnight, 10 μL of DMEM-diluted compound and 10 μL of 500 ng/mL of IFN-γ were added to each well, and gently mixed and the 96-well plates were placed in a 37° C., 5% CO2 incubator for further culturing. After 24 hours, they were removed and centrifuged at room temperature under 2000×g for 5 min, and then the supernatants were transferred to reaction plates (Sigma, Cat. No. CLS3695). One-twentieth of trichloroacetic acid (Sigma, Cat. No. T9159) was added and incubated at 60° C. After 30 min, the reaction plates were centrifuged at room temperature under 2000×g for 5 min. The supernatants were transferred to clean reaction plates, an equal volume of the Ehrlich reagent was added, mixed, and incubated at room temperature. After 15 min, OD490 of each well was measured.
In this experiment, OD490 without IFN-γ but with DMEM medium replacement was referred as OD490100% inhibition. OD490 with IFN-γ and 0.2% DMSO was referred as OD4900% inhibition. The percentage of inhibition on the IDO1 activity in Hela cells by a compound was calculated using the following formula: Inhibition %=100−100*(OD490compound−OD490100% inhibition)/(OD4900% inhibition−OD490100% inhibition)
Where Y is the percentage of inhibition, Bottom is the bottom platform value of the S-curve, Top is the top platform value of the S-curve, X is the logarithm of the concentration of the test compound, and slope factor is the slope coefficient of the curve.

Row | pIC50 | Structure (SMILES)
2 | > 7.30 | C[C@@H](C(=O)Nc1ccc(S(F)(F)(F)(F)F)cc1)[C@H]1CC[C@@H](c2ccnc3ccc(F)cc32)CC1 [Compound 1, (R)-2-((1s,4S)-4-(6-fluoroquinolin-4-yl)cyclohexyl)-N-(4-(pentafluoro-λ^6-sulfanyl)phenyl)propanamide]
3 | 6.00 to 6.70 | C[C@@H](C(=O)Nc1ccc(S(F)(F)(F)(F)F)cc1)[C@H]1CC[C@H](c2ccnc3ccc(F)cc32)CC1 [Compound 2, (R)-2-((1r,4R)-4-(6-fluoroquinolin-4-yl)cyclohexyl)-N-(4-(pentafluoro-λ^6-sulfanyl)phenyl)propanamide]
4 | > 7.30 | Cc1cc([C@H]2CC[C@@H]([C@@H](C)C(=O)Nc3ccc(S(F)(F)(F)(F)F)cc3)CC2)ccn1 [Compound 3, (R)-2-((1s,4S)-4-(2-methylpyridin-4-yl)cyclohexyl)-N-(4-(pentafluoro-λ^6-sulfanyl)phenyl)propanamide]
5 | 6.70 to 7.30 | C[C@@H](C(=O)Nc1ccc(S(F)(F)(F)(F)F)cc1)C1CCC(c2ccnc3ccnn23)CC1 (stereo partly drawn) [Compound 4, (R)-N-(4-(pentafluoro-λ^6-sulfanyl)phenyl)-2-(4-(pyrazolo[1,5-a]pyrimidin-7-yl)cyclohexyl)propanamide]
6 | > 7.30 | O=C(CC1(O)CCC(c2ccnc3ccc(F)cc23)CC1)Nc1ccc(S(F)(F)(F)(F)F)cc1 (stereo not drawn) [Compound 5, 2-(4-(6-fluoroquinolin-4-yl)-1-hydroxycyclohexyl)-N-(4-(pentafluoro-λ^6-sulfanyl)phenyl)acetamide]
7 | 6.00 to 6.70 | C[C@@H](C(=O)Nc1cccc(S(F)(F)(F)(F)F)c1)[C@H]1CC[C@@H](c2ccnc3ccc(F)cc32)CC1 [Compound 8, (R)-2-((1s,4S)-4-(6-fluoroquinolin-4-yl)cyclohexyl)-N-(3-(pentafluoro-λ^6-sulfanyl)phenyl)propanamide]
8 | > 7.30 | CC(NC(=O)c1ccc(S(F)(F)(F)(F)F)cc1)[C@H]1CC[C@@H](c2ccnc3ccc(F)cc32)CC1 (stereo partly drawn) [Compound 9, N-(1-((1s,4s)-4-(6-fluoroquinolin-4-yl)cyclohexyl)ethyl)-4-(pentafluoro-λ^6-sulfanyl)benzamide]

Test system: CT26 tumors
Test: not given
Details: repeated doses; cited from earlier work

Row | Structure (SMILES) | expansion of CT26 tumors
9 | NS(=O)(=O)NCCNc1nonc1C(=NO)Nc1ccc(F)c(Br)c1 [INCB-024360] | prevented the expansion of CT26 tumors
